Earlier results, collected in US20110262540A1, “Solid Pharmaceutical Composition Comprising Exemestane” (ARROW INTERNATIONAL LIMITED, priority 2008, published 2011).

Solubility in water: practically insoluble in water
Compound: C=C1C[C@@H]2[C@H](CC[C@]3(C)C(=O)CC[C@@H]23)[C@@]2(C)C=CC(=O)C=C12 [Exemestane, 6-methylenandrosta-1,4-diene-3,17-dione]
